Laboratory results published in patent publication US20100092465A1, “TREATMENT OF GRAFT-VERSUS-HOST DISEASE” (priority 2006, published 2010).

Tests used:
[1] = biological target: T1, huIL-27 (Homo sapiens, UniProt Q14213+Q8NEV9); assay: Phospho-STAT3 neutralization assay, mouse spleens, huIL-27; format: cell-based; details: Mouse Spleens; ligand huIL-27 at EC90
T1 sequence (Q14213 21-229): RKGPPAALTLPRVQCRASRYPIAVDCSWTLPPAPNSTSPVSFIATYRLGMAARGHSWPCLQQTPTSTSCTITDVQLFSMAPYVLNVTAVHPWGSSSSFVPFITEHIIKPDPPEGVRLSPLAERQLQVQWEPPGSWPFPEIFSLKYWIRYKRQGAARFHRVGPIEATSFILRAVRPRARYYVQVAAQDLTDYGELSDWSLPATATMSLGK
T1 sequence (Q8NEV9 29-243): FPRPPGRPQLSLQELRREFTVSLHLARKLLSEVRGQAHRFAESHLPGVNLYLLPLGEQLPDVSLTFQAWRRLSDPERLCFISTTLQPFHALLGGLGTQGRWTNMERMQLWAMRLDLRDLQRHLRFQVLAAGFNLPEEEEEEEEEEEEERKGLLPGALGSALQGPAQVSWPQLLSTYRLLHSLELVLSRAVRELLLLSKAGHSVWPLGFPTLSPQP
Text: (§1) Whole mouse spleens were harvested from C57 B1/6 mice and washed two times with 1×PBS before being plated out at 2×10^5 cells/well in assay media (RPMI 1640 plus 10% fetal bovine serum) in 96-well, round-bottom tissue culture plates. Total human PBMC (peripheral blood mononuclear cells) were thawed from a frozen vial collected from a leukapherisis donation and washed two times with 1×PBS before being plated out at 10^6 cells/well in assay media in 96-well, round-bottom tissue culture plates. […] Following pre-incubation, treatments were added to the plates containing the cells and incubated together at 37° C. for 15 minutes.
(§2) Following incubation, cells were washed with ice-cold wash buffer (BIO-PLEX Cell Lysis Kit, BIO-RAD Laboratories, Hercules, Calif.) and put on ice to stop the reaction according to manufacturer's instructions. […]
(§3) Capture beads (BIO-PLEX Phospho-Stat3 Assay, BIO-RAD Laboratories) were combined with 50 μL of 1:1 diluted lysates and added to a 96-well filter plate according to manufacture's instructions (BIO-PLEX Phosphoprotein Detection Kit, BIO-RAD Laboratories). […] After the final wash, beads were resuspended in 125 μL/well of bead suspension buffer, shaken for 30 seconds, and read on an array reader (BIO-PLEX, BIO-RAD Laboratories) according to the manufacture's instructions. Data were analyzed using analytical softward (BIO-PLEX MANAGER 3.0, BIO-RAD Laboratories). […]

[2] = biological target: T1, huIL-27; assay: Phospho-STAT3 neutralization assay, total human PBMCs, huIL-27; format: cell-based; details: Total Human PBMCs; ligand huIL-27 at EC90
Text: as §1, §2, §3

[3] = test system: serum IgG1, IgG2a, IgE and cytokines; assay: Serum immunoglobulin and cytokine levels in acute GVHD model; format: in vivo, mouse; details: serum level
Procedure: Efficacy of IL-27 antagonists was assayed in a mouse model of acute graft-vs-host disease (Durie et al., J. Clin. Invest. 94:1333-1338, 1994). Parental mice (C57BL/6; n=12) were euthanized, and their spleens were collected. The pooled spleens were smashed using two glass slides to dissociate splenic cells. Lysis buffer was added to the splenocyte suspension to remove red blood cells. The cells were washed in RPMI 1640 (10% FBS) medium and resuspended in an appropriate amount of PBS to make a cell concentration of 300 million cells/ml. Protein treatments were administered by intraperitoneal injection every other day beginning on day-1 and continuing until day 15. Dexamethasone (DEX) was administered by injection daily on days 0 through 6. On day 0, 75 million donor splenic lymphocytes from B6 mice (250 .micro.l per injection) were injected intravenously into recipient mice (C57BL/6×DBA/2 F1 (BDF1); n=10 per group) mice. Mice were monitored 3 times a week for changes in body weight and any signs of moribundity. Mice that lost >20% of their initial body weight were euthanized. Otherwise, mice were sacrificed 18 days after the cell transfer. Spleens were collected, and a CTL-specific lysis assay using P815 cells was performed as a quantitative measurement of acute GVHD. Furthermore, spleens were stained for T- and B-cell markers, including MHC class I markers (H2^b and H2^d) to look at donor/recipient cell ratio (acute GVHD spleen cells are mostly donor cells). Sera were collected to measure serum level of IgG1, IgG2a, and IgE by ELISA, and cytokine and chemokine levels using a commercially available kit (Luminex Corporation, Austin, Tex.).

IC50 [1]: 320 pM | IC50 [2]: 950 pM
Substance: human IL-27RA-Fc5: human IL27RA extracellular domain (amino acids 1 to 512 of SEQ ID NO:5) fused to Fc5, effector minus human gamma1 Fc; SEQ ID NO:3
IL-2 [3]: ↑↑↑ | IL-5 [3]: ↑↑ | IL-6 [3]: ↓↓↓ | IgE [3]: ↑ | IgG1 [3]: ↑↑ | IgG2A [3]: ↑↑
